Results from patent US9809623B2, “α4β7 peptide monomer and dimer antagonists” (Protagonist Therapeutics, Inc., priority 2014, dated 2017).
Numbered stars: 1 amine (or outer) side, 2 acyl side, 3 side chain; on linkers, the order of the positions; unused ones are H or OH. Bridge positions count the residues as written; N and C are the ends. Square brackets hold non-standard residues; d marks the D form. Peptide text beside a SMILES is read from it. I, II: the chains in the order shown. Phe(3,4-Cl2) = N[C@@H](Cc1ccc(Cl)c(Cl)c1)C(=O)O; Phe(2,4-Cl2) = N[C@@H](Cc1ccc(Cl)cc1Cl)C(=O)O; 1Nal = N[C@@H](Cc1cccc2ccccc12)C(=O)O; 2Nal = N[C@@H](Cc1ccc2ccccc2c1)C(=O)O; Diglycolyl = O=C(COCC(=O)[*:2])[*:1]; NMeR = CN[C@@H](CCCNC(=N)N)C(=O)O; Pen = CC(C)(S)[C@H](N)C(=O)O; dNMeK = CN[C@H](CCCCN)C(=O)O

Experiments:
[1] = molecular target: T1, rh integrin α4β7 (Homo sapiens, UniProt P13612+P26010); experiment: α4β7-MAdCAM Competition ELISA; assay type: binding; settings: Table 3-B, Potency (α4β7); range classes; read-out: α4β7 ELISA IC50
T1 construct: purchased R&D Systems 5397-A30
Outline: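 Competition read-out was A450 after anti-human IgG1-HRP and TMB detection of bound recombinant human MAdCAM-1 (10 nM final). Peptides were serially diluted 3-fold from a final 10 μM and equilibrated 1 h at room temperature on nickel-captured α4β7 (800 ng/well). The buffer was Tris pH 7.6 with 1 mM Mn2+ or Mg2+.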

[2] = molecular target: T2, α4β1 (Homo sapiens, UniProt P05556+P13612, DEL729-798); experiment: α4β1-VCAM Competition ELISA; assay type: binding; settings: Table 3-B, Selectivity (α4β1); range classes; read-out: α4β1 ELISA IC50
T2 construct: purchased R&D Systems 5668-A4
Experimental: A Nunc MaxiSorp plate was coated with rh VCAM-1/CD106 Fc chimera (R&D #862-VC) at 400 ng/well in 50 ul per well in 1×PBS and incubated overnight at 4° C. The solution was removed by shaking and then blocked with 250 ul of 1% BSA in 1×PBS per well. The wells were then incubated at room temperature for 1 hr with shaking. Each well was then washed once with wash buffer (50 mM Tris-HCl pH7.6, 100 mM NaCL, 1 mM MnCl2 or MgCl2, 0.05% Tween-20). 25 ul of serial dilutions of peptides starting at 200 μM in assay buffer (Assay buffer: 50 mM Tris-HCl pH7.6, 100 mM NaCl, 1 mM MnCl2 or MgCl2, 0.05% Tween-20) was added to each well. Additionally, 25 ul of α4β1 (R&D Systems #5668-A4) was added to each well at a fixed concentration of 120 nM. The final peptide and α4β1 concentrations were 100 μM and 60 nM, respectively. The plates were then incubated at 37° C. for 2 hr. The solution was then removed by shaking, and each well was washed three times with wash buffer. 50 ul of 9F10 antibody at 4 ug/ml (purified mouse anti-human CD49d, BD Bioscience Cat#555502) was then added to each well, and the plate was incubated at room temperature for 1 hr with shaking. The solution was again removed by shaking, and each well was washed three times with wash buffer. 50 ul of peroxidase-conjugated AffiniPure Goat anti-mouse IgG (Jackson immune research cat #115-035-003) diluted in 1:5000 in assay buffer was added to each well. The plate was incubated at room temperature for 30 min with shaking. Each well was then washed 3 times with wash buffer. 100 ul of TMB was then added to each well and closely observe during developing time. The reaction was stepped with 2N H2SO4 and absorbance was read at 450 nm.

[3] = Simulated Intestinal Fluid (SIF) Stability Assay; assay type: in vitro ADME, porcine; settings: > means experiment was stopped at that time and half life was not reached; for half-life at 22 μM: pig, simulated intestinal fluid (SIF) with 1% porcine pancreatin, pH 6.5, Table 3-B, read-out: Stabilty SIF t1/2
Outline: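 Intestinal stability: percent peptide remaining over time, by LC-MS/MS peak-area ratio to internal standard, fitted to first-order decay for half-life. Conditions: 22 μM peptide, 1% pancreatin in pH 6.5 blank FASSIF, 37 °C.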

[4] = molecular target: α4β7 (Homo sapiens, UniProt P13612+P26010); experiment: α4β7-MAdCAM Cell Adhesion Assay (RPMI 8866 human cells); assay type: cell-based; design: host or cells: RPMI 8866 human B lymphoblastoid cells; settings: Table 3-B, Potency (α4β7); range classes; read-out: α4β7 cell (Hu) IC50
Outline: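 Adhesion read-out: MTT absorbance at 570 nm minus no-cell wells, after three washes. Plates coated with rh MAdCAM-1/Fc received peptide dilutions plus 200,000 RPMI 8866 cells in Mn2+ (1 mM)-supplemented DMEM, 0.1% BSA, HEPES pH 7, incubated 30-45 min, 37 °C.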

T2 sequence (P13612 34-977 limits assumed, stated change not applied): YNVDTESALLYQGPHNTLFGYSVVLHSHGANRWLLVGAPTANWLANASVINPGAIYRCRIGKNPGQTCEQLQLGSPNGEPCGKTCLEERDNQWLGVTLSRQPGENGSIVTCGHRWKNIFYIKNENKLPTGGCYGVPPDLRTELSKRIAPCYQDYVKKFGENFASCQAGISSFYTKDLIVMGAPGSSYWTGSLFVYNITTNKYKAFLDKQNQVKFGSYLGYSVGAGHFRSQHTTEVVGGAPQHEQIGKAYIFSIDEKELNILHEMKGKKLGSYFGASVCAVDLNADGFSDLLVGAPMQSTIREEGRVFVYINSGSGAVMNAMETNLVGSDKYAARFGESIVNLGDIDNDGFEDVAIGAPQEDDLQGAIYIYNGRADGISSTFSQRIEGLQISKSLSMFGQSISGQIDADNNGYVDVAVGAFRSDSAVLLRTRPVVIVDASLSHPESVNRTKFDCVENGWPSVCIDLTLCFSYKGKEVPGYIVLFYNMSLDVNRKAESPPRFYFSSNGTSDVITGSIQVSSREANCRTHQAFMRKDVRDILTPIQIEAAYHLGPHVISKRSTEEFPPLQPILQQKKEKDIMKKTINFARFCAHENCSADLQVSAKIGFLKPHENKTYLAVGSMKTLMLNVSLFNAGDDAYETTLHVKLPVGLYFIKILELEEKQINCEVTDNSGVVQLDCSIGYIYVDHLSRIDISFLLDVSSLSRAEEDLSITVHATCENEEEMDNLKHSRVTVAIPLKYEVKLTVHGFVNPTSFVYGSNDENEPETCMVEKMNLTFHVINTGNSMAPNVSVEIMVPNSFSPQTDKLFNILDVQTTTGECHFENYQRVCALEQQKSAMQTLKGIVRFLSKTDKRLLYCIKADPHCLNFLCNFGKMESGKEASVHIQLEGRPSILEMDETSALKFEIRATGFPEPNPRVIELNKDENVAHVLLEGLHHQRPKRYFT
T2 sequence (P05556 21-728 limits assumed, stated change not applied): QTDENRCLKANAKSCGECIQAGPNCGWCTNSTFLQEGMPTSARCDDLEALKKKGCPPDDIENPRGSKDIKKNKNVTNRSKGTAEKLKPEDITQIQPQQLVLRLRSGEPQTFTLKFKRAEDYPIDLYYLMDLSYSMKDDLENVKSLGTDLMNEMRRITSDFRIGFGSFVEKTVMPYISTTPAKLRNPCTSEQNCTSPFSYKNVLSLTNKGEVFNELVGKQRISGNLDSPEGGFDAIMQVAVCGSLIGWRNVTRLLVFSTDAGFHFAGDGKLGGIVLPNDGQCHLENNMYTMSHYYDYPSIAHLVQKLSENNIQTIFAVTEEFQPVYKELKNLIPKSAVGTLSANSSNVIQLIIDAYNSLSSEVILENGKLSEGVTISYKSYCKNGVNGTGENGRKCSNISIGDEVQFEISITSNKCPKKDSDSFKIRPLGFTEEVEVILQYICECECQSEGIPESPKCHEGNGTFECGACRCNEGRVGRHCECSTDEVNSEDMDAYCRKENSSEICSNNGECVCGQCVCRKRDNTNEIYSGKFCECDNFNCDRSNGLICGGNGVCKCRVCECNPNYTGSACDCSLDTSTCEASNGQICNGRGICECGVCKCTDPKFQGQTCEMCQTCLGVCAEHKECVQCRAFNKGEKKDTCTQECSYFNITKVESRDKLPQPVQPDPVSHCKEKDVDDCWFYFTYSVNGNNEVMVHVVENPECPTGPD
T1 sequence (P13612 34-977 limits assumed): as the sequence (P13612 34-977 limits assumed, stated change not applied) above
T1 sequence (P26010 20-723 limits assumed): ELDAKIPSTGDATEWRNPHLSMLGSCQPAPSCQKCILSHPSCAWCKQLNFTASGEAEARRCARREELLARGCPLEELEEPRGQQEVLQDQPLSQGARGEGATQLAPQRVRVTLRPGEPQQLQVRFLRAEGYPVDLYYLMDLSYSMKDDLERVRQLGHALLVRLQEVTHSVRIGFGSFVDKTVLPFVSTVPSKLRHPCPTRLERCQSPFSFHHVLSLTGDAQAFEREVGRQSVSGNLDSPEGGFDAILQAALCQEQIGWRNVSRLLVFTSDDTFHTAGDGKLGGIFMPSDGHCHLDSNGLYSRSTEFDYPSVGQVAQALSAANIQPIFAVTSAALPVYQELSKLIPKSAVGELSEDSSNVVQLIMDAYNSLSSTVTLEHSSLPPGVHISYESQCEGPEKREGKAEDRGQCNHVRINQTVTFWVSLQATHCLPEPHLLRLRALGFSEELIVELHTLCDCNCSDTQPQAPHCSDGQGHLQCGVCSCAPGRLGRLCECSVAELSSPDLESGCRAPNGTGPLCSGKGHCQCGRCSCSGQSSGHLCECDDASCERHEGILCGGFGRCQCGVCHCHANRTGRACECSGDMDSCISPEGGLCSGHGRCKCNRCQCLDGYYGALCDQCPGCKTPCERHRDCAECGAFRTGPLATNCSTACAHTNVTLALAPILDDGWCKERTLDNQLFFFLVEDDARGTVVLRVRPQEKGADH
Sequence of α4β7 (P13612 34-1032): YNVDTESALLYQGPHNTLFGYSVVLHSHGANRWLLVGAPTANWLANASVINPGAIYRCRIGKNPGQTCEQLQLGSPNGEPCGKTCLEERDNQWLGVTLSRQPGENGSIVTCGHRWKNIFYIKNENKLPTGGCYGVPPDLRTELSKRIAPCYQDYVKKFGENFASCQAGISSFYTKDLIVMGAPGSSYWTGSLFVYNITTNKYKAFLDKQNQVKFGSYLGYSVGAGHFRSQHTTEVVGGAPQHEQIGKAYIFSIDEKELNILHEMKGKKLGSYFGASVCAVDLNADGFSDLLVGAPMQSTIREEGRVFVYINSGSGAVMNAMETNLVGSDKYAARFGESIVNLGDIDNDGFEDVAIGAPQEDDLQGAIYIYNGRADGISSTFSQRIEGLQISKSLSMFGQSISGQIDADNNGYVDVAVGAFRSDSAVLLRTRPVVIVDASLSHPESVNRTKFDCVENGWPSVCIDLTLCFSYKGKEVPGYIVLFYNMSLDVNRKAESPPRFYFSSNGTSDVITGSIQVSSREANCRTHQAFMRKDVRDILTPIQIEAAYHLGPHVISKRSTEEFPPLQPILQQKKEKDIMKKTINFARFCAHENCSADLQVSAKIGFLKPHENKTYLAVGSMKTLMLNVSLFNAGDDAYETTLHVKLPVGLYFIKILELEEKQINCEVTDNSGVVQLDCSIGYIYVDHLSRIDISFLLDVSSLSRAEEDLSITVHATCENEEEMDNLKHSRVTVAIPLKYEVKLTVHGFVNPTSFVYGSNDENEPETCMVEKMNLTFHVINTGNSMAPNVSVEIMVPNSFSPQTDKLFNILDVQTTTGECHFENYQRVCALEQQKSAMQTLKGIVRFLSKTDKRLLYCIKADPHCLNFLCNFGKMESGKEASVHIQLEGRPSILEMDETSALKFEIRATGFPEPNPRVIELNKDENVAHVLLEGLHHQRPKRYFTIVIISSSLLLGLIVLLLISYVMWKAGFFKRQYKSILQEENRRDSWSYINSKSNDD
Sequence of α4β7 (P26010 20-798): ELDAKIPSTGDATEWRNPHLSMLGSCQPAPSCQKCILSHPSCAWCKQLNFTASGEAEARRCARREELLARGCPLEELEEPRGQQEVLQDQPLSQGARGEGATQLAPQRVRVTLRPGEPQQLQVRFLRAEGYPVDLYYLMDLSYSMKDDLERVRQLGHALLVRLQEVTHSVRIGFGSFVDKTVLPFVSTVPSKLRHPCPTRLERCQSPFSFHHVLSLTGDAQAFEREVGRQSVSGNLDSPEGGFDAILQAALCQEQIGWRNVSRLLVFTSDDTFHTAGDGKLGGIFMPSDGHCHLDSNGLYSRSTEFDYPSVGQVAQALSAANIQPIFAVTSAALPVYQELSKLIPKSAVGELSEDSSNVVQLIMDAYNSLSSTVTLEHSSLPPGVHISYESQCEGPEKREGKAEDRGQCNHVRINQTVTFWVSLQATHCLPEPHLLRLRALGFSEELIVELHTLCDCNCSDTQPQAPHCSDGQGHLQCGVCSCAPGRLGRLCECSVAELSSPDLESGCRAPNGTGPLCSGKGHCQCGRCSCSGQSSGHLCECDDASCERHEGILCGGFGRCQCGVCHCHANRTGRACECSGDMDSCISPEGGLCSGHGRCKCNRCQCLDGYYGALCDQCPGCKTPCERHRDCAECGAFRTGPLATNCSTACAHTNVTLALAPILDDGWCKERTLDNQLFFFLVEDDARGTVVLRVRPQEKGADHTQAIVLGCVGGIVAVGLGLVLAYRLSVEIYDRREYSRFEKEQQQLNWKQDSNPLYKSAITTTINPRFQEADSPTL

| Compound | IC50 [1] [µM] | IC50 [2] [µM] | half-life at 22 μM [3] [min] | IC50 [4] [µM] | Stabilty SIF t1/2 ([3]; Table 3-B) [min] |
| --- | --- | --- | --- | --- | --- |
| CC(=O)N[C@@H]1C(=O)N(C)[C@@H](CCCNC(=N)N)C(=O)N[C@@H](CO)C(=O)N[C@@H](CC(=O)O)C(=O)N[C@@H]([C@@H](C)O)C(=O)N[C@@H](CC(C)C)C(=O)N[C@H](C(=O)N[C@@H](Cc2ccc3ccccc3c2)C(=O)N[C@@H](CCC(=O)O)C(=O)N(C)[C@H](CCCCNC(=O)COCC(=O)NCCCC[C@H](C(N)=O)N(C)C(=O)[C@H](CCC(=O)O)NC(=O)[C@H](Cc2ccc3ccccc3c2)NC(=O)[C@H]2NC(=O)[C@H](CC(C)C)NC(=O)[C@H]([C@@H](C)O)NC(=O)[C@H](CC(=O)O)NC(=O)[C@H](CO)NC(=O)[C@H](CCCNC(=N)N)N(C)C(=O)[C@@H](NC(C)=O)C(C)(C)SSC2(C)C)C(N)=O)C(C)(C)SSC1(C)C [compound 41] (I: Ac-[Pen][NMeR]SDTL[Pen][2Nal]E[dNMeK]-NH2 / II: Ac-[Pen][NMeR]SDTL[Pen][2Nal]E[dNMeK]-NH2; disulfide I:1-I:7, II:1-II:7; linker I:10-II:10 via Diglycolyl) | < 0.01 | 0.1 to 0.5 | > 180 | < 0.01 |  |
| CC(=O)N[C@@H]1C(=O)N(C)[C@@H](CCCNC(=N)N)C(=O)N[C@@H](CO)C(=O)N[C@@H](CC(=O)O)C(=O)N[C@@H]([C@@H](C)O)C(=O)N[C@@H](CC(C)C)C(=O)N[C@H](C(=O)N[C@@H](Cc2cccc3ccccc23)C(=O)N[C@H](CCC(=O)O)C(=O)N(C)[C@H](CCCCNC(=O)COCC(=O)NCCCC[C@H](C(N)=O)N(C)C(=O)[C@@H](CCC(=O)O)NC(=O)[C@H](Cc2cccc3ccccc23)NC(=O)[C@H]2NC(=O)[C@H](CC(C)C)NC(=O)[C@H]([C@@H](C)O)NC(=O)[C@H](CC(=O)O)NC(=O)[C@H](CO)NC(=O)[C@H](CCCNC(=N)N)N(C)C(=O)[C@@H](NC(C)=O)C(C)(C)SSC2(C)C)C(N)=O)C(C)(C)SSC1(C)C [compound 38] (I: Ac-[Pen][NMeR]SDTL[Pen][1Nal][dE][dNMeK]-NH2 / II: Ac-[Pen][NMeR]SDTL[Pen][1Nal][dE][dNMeK]-NH2; disulfide I:1-I:7, II:1-II:7; linker I:10-II:10 via Diglycolyl) | < 0.01 | 0.1 to 0.5 | > 180 | < 0.01 |  |
| CC(=O)N[C@@H]1C(=O)N(C)[C@@H](CCCNC(=N)N)C(=O)N[C@@H](CO)C(=O)N[C@@H](CC(=O)O)C(=O)N[C@@H]([C@@H](C)O)C(=O)N[C@@H](CC(C)C)C(=O)N[C@H](C(=O)N[C@@H](Cc2ccc(Cl)cc2Cl)C(=O)N[C@@H](CCC(=O)O)C(=O)N[C@H](CCCCNC(=O)COCC(=O)NCCCC[C@@H](NC(=O)[C@H](CCC(=O)O)NC(=O)[C@H](Cc2ccc(Cl)cc2Cl)NC(=O)[C@H]2NC(=O)[C@H](CC(C)C)NC(=O)[C@H]([C@@H](C)O)NC(=O)[C@H](CC(=O)O)NC(=O)[C@H](CO)NC(=O)[C@H](CCCNC(=N)N)N(C)C(=O)[C@@H](NC(C)=O)C(C)(C)SSC2(C)C)C(N)=O)C(N)=O)C(C)(C)SSC1(C)C [compound 42] (I: Ac-[Pen][NMeR]SDTL[Pen][Phe(2,4-Cl2)]E[dK]-NH2 / II: Ac-[Pen][NMeR]SDTL[Pen][Phe(2,4-Cl2)]E[dK]-NH2; disulfide I:1-I:7, II:1-II:7; linker I:10-II:10 via Diglycolyl) | < 0.01 | 0.1 to 0.5 | 51 | < 0.01 | 49 |
| CC(=O)N[C@@H]1C(=O)N(C)[C@@H](CCCNC(=N)N)C(=O)N[C@@H](CO)C(=O)N[C@@H](CC(=O)O)C(=O)N[C@@H]([C@@H](C)O)C(=O)N[C@@H](CC(C)C)C(=O)N[C@H](C(=O)N[C@@H](Cc2cccc3ccccc23)C(=O)N[C@H](CCC(=O)O)C(=O)N[C@H](CCCCNC(=O)COCC(=O)NCCCC[C@@H](NC(=O)[C@@H](CCC(=O)O)NC(=O)[C@H](Cc2cccc3ccccc23)NC(=O)[C@H]2NC(=O)[C@H](CC(C)C)NC(=O)[C@H]([C@@H](C)O)NC(=O)[C@H](CC(=O)O)NC(=O)[C@H](CO)NC(=O)[C@H](CCCNC(=N)N)N(C)C(=O)[C@@H](NC(C)=O)C(C)(C)SSC2(C)C)C(N)=O)C(N)=O)C(C)(C)SSC1(C)C [compound 32] (I: Ac-[Pen][NMeR]SDTL[Pen][1Nal][dE][dK]-NH2 / II: Ac-[Pen][NMeR]SDTL[Pen][1Nal][dE][dK]-NH2; disulfide I:1-I:7, II:1-II:7; linker I:10-II:10 via Diglycolyl) | < 0.01 | 0.1 to 0.5 | > 180 | 0.01 to 0.025 |  |
| CC(=O)N[C@@H]1C(=O)N(C)[C@@H](CCCNC(=N)N)C(=O)N[C@@H](CO)C(=O)N[C@@H](CC(=O)O)C(=O)N[C@@H]([C@@H](C)O)C(=O)N[C@@H](CC(C)C)C(=O)N[C@H](C(=O)N[C@@H](Cc2ccc(O)cc2)C(=O)N[C@@H](CCC(=O)O)C(=O)N[C@H](CCCCNC(=O)COCC(=O)NCCCC[C@@H](NC(=O)[C@H](CCC(=O)O)NC(=O)[C@H](Cc2ccc(O)cc2)NC(=O)[C@H]2NC(=O)[C@H](CC(C)C)NC(=O)[C@H]([C@@H](C)O)NC(=O)[C@H](CC(=O)O)NC(=O)[C@H](CO)NC(=O)[C@H](CCCNC(=N)N)N(C)C(=O)[C@@H](NC(C)=O)C(C)(C)SSC2(C)C)C(N)=O)C(N)=O)C(C)(C)SSC1(C)C [compound 22] (I: Ac-[Pen][NMeR]SDTL[Pen]YE[dK]-NH2 / II: Ac-[Pen][NMeR]SDTL[Pen]YE[dK]-NH2; disulfide I:1-I:7, II:1-II:7; linker I:10-II:10 via Diglycolyl) | < 0.01 | 0.1 to 0.5 | < 20 | < 0.01 |  |
| CC(=O)N[C@@H]1C(=O)N(C)[C@@H](CCCNC(=N)N)C(=O)N[C@@H](CO)C(=O)N[C@@H](CC(=O)O)C(=O)N[C@@H]([C@@H](C)O)C(=O)N[C@@H](CC(C)C)C(=O)N[C@H](C(=O)N[C@@H](Cc2cccc3ccccc23)C(=O)N[C@@H](CCC(=O)O)C(=O)N[C@H](CCCCNC(=O)COCC(=O)NCCCC[C@@H](NC(=O)[C@H](CCC(=O)O)NC(=O)[C@H](Cc2cccc3ccccc23)NC(=O)[C@H]2NC(=O)[C@H](CC(C)C)NC(=O)[C@H]([C@@H](C)O)NC(=O)[C@H](CC(=O)O)NC(=O)[C@H](CO)NC(=O)[C@H](CCCNC(=N)N)N(C)C(=O)[C@@H](NC(C)=O)C(C)(C)SSC2(C)C)C(N)=O)C(N)=O)C(C)(C)SSC1(C)C [compound 24] (I: Ac-[Pen][NMeR]SDTL[Pen][1Nal]E[dK]-NH2 / II: Ac-[Pen][NMeR]SDTL[Pen][1Nal]E[dK]-NH2; disulfide I:1-I:7, II:1-II:7; linker I:10-II:10 via Diglycolyl) | < 0.01 | 0.1 to 0.5 | 56 | < 0.01 |  |
| CC(=O)N[C@@H]1C(=O)N(C)[C@@H](CCCNC(=N)N)C(=O)N[C@@H](CO)C(=O)N[C@@H](CC(=O)O)C(=O)N[C@@H]([C@@H](C)O)C(=O)N[C@@H](CC(C)C)C(=O)N[C@H](C(=O)N[C@@H](Cc2ccc(Cl)c(Cl)c2)C(=O)N[C@@H](CCC(=O)O)C(=O)N[C@H](CCCCNC(=O)COCC(=O)NCCCC[C@@H](NC(=O)[C@H](CCC(=O)O)NC(=O)[C@H](Cc2ccc(Cl)c(Cl)c2)NC(=O)[C@H]2NC(=O)[C@H](CC(C)C)NC(=O)[C@H]([C@@H](C)O)NC(=O)[C@H](CC(=O)O)NC(=O)[C@H](CO)NC(=O)[C@H](CCCNC(=N)N)N(C)C(=O)[C@@H](NC(C)=O)C(C)(C)SSC2(C)C)C(N)=O)C(N)=O)C(C)(C)SSC1(C)C [compound 43] (I: Ac-[Pen][NMeR]SDTL[Pen][Phe(3,4-Cl2)]E[dK]-NH2 / II: Ac-[Pen][NMeR]SDTL[Pen][Phe(3,4-Cl2)]E[dK]-NH2; disulfide I:1-I:7, II:1-II:7; linker I:10-II:10 via Diglycolyl) | < 0.01 | 0.1 to 0.5 | 21 | 0.01 to 0.025 |  |
